According to publication PMC11234460, “In Silico Discovery of Stapled Peptide Inhibitor Targeting the Nur77‐PPARγ Interaction and Its Anti‐Breast‐Cancer Efficacy” (Advanced Science, 2024):
Values belong to the compound of their own block, whether it stands above or below them. Where a SMILES comes first, the peptide text is derived from it. Bridges are numbered along the chain shown (N, C = ends). [ ]: non-standard residue; d: D form. S5 = C=CCCC[C@](C)(N)C(=O)O

Tests used:
Solubility test in PBS = type: physicochemical; settings: 1 mg in 50 µL, gradient diluted from 20 to 0.078125 mg mL^−1, OD at 600 nm (turbidity), plate reader
Description: Mix 1 mg ST‐CY14 or Csn‐B (Shanghai Sunny Biotech) in 50 µL PBS buffer, and then transfer 40 µL the suspension to a 96‐well plate. The suspension was gradient diluted from 20 to 0. 07 8125 mg mL^−1. OD values were measured at 600 nm on a Cytation 5 (Biotek, USA) plate reader. PBS was set as a blank control.

[1] = CD spectroscopy, α-helicity; type: physicochemical; settings: 5 × 10^−5 M peptide in H2O, 25 °C, 1 mm cuvette, 185-260 nm
Description: The detection wavelengths of the peptides were 214 and 254 nm. Solvent A: H2O (containing 0.1% TFA) and solvent B: acetonitrile (containing 0.1% TFA) were used as solvents in linear gradient mixtures. Peptide purification was performed by semi‐preparative HPLC using an XBridge Prep C18 column (19 × 250 mm, 10 µm particle size, flow rate of 20 mL min^−1). Solvents A and B were the same as those in the peptide analysis procedure. The peptides were dissolved in H2O to a final concentration of 5 × 10^−5 M. The purified peptide was detected using a mass spectrometer (6410 Triple Quad LC/MS, Agilent, USA) (Table S2, Supporting Information). The solvent was 80% methanol and 20% H2O (containing 0.1% formic acid). The CD spectra were obtained with a 1 mm quartz cuvette on a BRIGHT TIME Chirasca (Applied Photophysics, Britain) spectropolarimeter with a scan wavelength between 185–260 nm at 25 °C. The helicity of each peptide was calculated by the literature equation.^[ [24] ^]

Nur77-PPARγ complex = target: T1, Nur77-PPARγ complex (Homo sapiens, UniProt P22736); experiment: NanoBiT assay of Nur77-PPARγ complex formation in HEK293T cells; type: cell-based; settings: 1 × 10^−5 M peptide, 1 h, n = 3
T1 construct: expressed in transfected cells; host or cells: HEK293T
Description: HEK293T cells were seeded in a poly‐d‐lysine‐coated black 96‐well cell culture plate at 10 000 cells per well in 100 µL culture medium. The next day, the master mix of 100 ng receptor construct containing the PPARγ‐LargeBit and SmallBit‐Nur77 plasmids (w/w, 50 ng:50 ng) was diluted in Opti‐MEM Medium (Gibco, 11058‐021), then P3000 Reagent was added. Meanwhile, 0.15 µL Lipofectamine 3000 reagent (ThermoFisher, L3000015) was added to 5 µL Opti‐MEM Medium. Subsequently, diluted DNA was added to Lipofectamine 3000 reagent (V/V, 1:1) and incubated for 15 min at room temperature. A mixture containing the above plasmids and Lipofectamine 3000 was prepared and added to each well. After 24 h, the cells were treated with 1 × 10^−5 M peptides (TAT, T‐CY14, S‐CY14, and ST‐CY14) or variable concentrations of ST‐CY‐14 (0.1/0.2/0.5/1/2/5/10/20/40 × 10^−6 M) for 1 h. The culture medium was replaced with 90 µL Tyrode's solution (Solarbio, T1420). Then, 10 µL furimazine (5 × 10^−5 M) was added to each well and the luminescence signal was measured every 86 s for 1 h at 37 °C.

MCF7 cells [2] = experiment: Transwell cell migration analysis; type: cell-based, human; settings: MCF7, 12 h
Description: (§1) 600 µL DMEM complete medium was added to the lower chamber of the Transwell. Next, 2×10^4 cells in 100 µL DMEM medium, containing 1, 2, 5, 10, or 2 × 10^−5 M peptides, were added to the upper chamber of the Transwell. The cells were incubated for 12 h at 37 °C and 5% CO2. After the incubation period, the medium was discarded, and the chamber was washed with PBS. The cells were then fixed with 4% paraformaldehyde for 20 min. The upper chamber was subsequently soaked in crystal violet for 20 min, washed with PBS, and observed under a microscope for analysis.

MDA-MB-231 cells [3] = experiment: Transwell cell migration analysis; type: cell-based; settings: MDA-MB-231, 12 h
Description: as §1

MDA-MB-231 cells [4] = experiment: Scratch (wound-healing) assay; type: cell-based; settings: MDA-MB-231, 12 h
Description: (§2) MCF7 and MDA‐MB‐231 cells were seeded in 6‐well plates and cultured overnight. Once the cell density reached 90%, a line was scratched along the center of the 6‐well plate and images were taken randomly in the scratch domain under a microscope. The cells in each well were then treated with peptides of varying concentrations for 12 h, after which images were taken again in the scratch domain. The formula used to calculate the scratch healing rate was as follows: Scratch healing rate (%) = [(Scratch area at 0 h – Scratch area at 12 h) […] Scratch area at 0 h] × 100%.

MDA-MB-231 cells [5] = experiment: Western blot of Nur77, CD36 and FABP4; type: cell-based
Description: (§3) MCF7 and MDA‐MB‐231 cells were treated with various concentrations of peptide. The cells were then collected and lysed in NP40 lysis buffer. Total protein was quantified using a BCA assay kit (Beyotime, P0010S). The proteins were separated by SDS‐PAGE and transferred onto a PVDF membrane. The PVDF membrane was blocked in TBST containing 5% non‐fat milk, and then incubated with primary antibodies overnight at 4 °C. Subsequently, membranes were incubated with horseradish peroxidase‐conjugated antirabbit or antimouse IgG secondary antibody for 1 h at room temperature. The membranes were analyzed by a Tanon‐5200 Multi Gel Imaging Analysis System (Tanon) and quantified by ImageJ software.

α-chymotrypsin = experiment: Protease stability in α-chymotrypsin solution; type: in vitro ADME; settings: α-chymotrypsin solution; α-chymotrypsin 0.5 ng µL^−1 in PBS (5 × 10^−2 M, 2 × 10^−3 M CaCl2, pH 7.4); 100 µL of 1 × 10^−3 M peptide + 1 mL enzyme; room temperature; 5-480 min; quenched with 1 M HCl; analytical HPLC at 214 nm
Description: The peptides were dissolved in PBS (pH 7.4) to a final concentration of 1 × 10^−3 M. α‐Chymotrypsin was dissolved in PBS (5 × 10^−2 M, containing 2 × 10^−3 M CaCl2, pH 7.4) to a final concentration of 0.5 ng µL^−1. Subsequently, 100 µL peptides were incubated with α‐chymotrypsin (1 mL) at room temperature, and 100 µL of the digestion mixture was collected at different times (5/10/20/30/60/120/240/480 min) and added to a centrifuge tube containing 20 µL of 1 M HCl to quench the enzymatic reaction. The solution of α‐Chymotrypsin peptide fragments was monitored by analytical HPLC to determine the fraction of protease degradation at 214 nm.

MCF7 cells [6] = experiment: Scratch (wound-healing) assay; type: cell-based, human; settings: MCF7, 12 h
Description: as §2

MCF7 cells [7] = experiment: Western blot of Nur77, CD36 and FABP4; type: cell-based, human
Description: as §3

T1 sequence (P22736 whole entry, one chain of several): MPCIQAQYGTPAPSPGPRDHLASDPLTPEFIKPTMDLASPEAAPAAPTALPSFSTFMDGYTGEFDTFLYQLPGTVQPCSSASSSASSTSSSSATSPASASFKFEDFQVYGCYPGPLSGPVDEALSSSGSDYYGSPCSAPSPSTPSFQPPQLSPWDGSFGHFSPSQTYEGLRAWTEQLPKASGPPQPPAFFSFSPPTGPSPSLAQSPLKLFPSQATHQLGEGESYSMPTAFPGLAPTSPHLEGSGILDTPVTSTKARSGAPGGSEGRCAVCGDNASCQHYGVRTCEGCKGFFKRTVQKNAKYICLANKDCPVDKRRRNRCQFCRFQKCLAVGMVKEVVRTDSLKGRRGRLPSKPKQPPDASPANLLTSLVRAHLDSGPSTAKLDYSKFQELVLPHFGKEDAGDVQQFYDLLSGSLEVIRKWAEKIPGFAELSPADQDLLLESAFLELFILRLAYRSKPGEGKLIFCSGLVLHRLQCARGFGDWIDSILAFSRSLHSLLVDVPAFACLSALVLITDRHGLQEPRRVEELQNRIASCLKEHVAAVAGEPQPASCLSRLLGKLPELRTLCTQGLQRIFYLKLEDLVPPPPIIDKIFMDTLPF

Solubility in PBS (Solubility test in PBS): ≈ 1 mg mL^−1
Structure (SMILES): CCCCCCCC(=O)c1c(O)cc(O)cc1CC(=O)OCC [Csn-B, cytosporone B, reference compound]

α-Helicity (CD) [1]: 15.6%
Effect on NanoBiT luminescence (Nur77-PPARγ complex) (Nur77-PPARγ complex): minimal effects on the luminescence
Structure (SMILES): C[C@@H](O)[C@@H]1NC(=O)[C@H](CCCNC(=N)N)NC(=O)[C@H](CCCNC(=N)N)NC(=O)[C@@](C)(NC(=O)[C@H](Cc2ccccc2)NC(=O)CNC(=O)[C@H](CCCCN)NC(=O)[C@H](CS)NC(=O)CNC(=O)[C@H](CCC(=O)O)NC(=O)[C@@H](N)CS)CCCC=CCCC[C@@](C)(C(=O)N[C@@H](CCCNC(=N)N)C(=O)N[C@@H](Cc2ccc(O)cc2)C(N)=O)NC1=O [S-CY14] (H-CEGCKGF[S5]RRT[S5]RY-NH2; staple 8-12)

Structure (SMILES): CC[C@H](C)[C@H](NC(=O)[C@@H](NC(=O)[C@H](CCCNC(=N)N)NC(=O)[C@H](CCCNC(=N)N)NC(=O)[C@H](Cc1ccccc1)NC(=O)[C@H](Cc1ccccc1)NC(=O)CNC(=O)[C@H](CCCCN)NC(=O)[C@H](CS)NC(=O)CNC(=O)[C@H](CCC(=O)O)NC(=O)[C@@H](N)CS)[C@@H](C)O)C(=O)N[C@@H](CCCNC(=N)N)C(=O)N[C@@H](Cc1ccc(O)cc1)C(=O)N[C@@H](Cc1ccc(O)cc1)C(=O)NCC(=O)N[C@@H](CCCNC(=N)N)C(=O)N[C@@H](CCCCN)C(=O)N[C@@H](CCCCN)C(=O)N[C@@H](CCCNC(=N)N)C(=O)N[C@@H](CCCNC(=N)N)C(=O)N[C@@H](CCC(N)=O)C(=O)N[C@@H](CCCNC(=N)N)C(=O)N[C@@H](CCCNC(=N)N)C(=O)N[C@@H](CCCNC(=N)N)C(N)=O [T-CY14] (H-CEGCKGFFRRTIRYYGRKKRRQRRR-NH2)
Transwell transmigration (MCF7 cells [2]): inhibited the transmigration
Transwell transmigration (MDA-MB-231 cells [3]): inhibited the transmigration
Scratch healing (MDA-MB-231 cells [4]): suppressed the scratch healing
CD36 and FABP4 protein expression (immunoblot) (MDA-MB-231 cells [5]): had some effect, but its efficacy was much lower
Nur77 protein expression (immunoblot) (MDA-MB-231 cells [5]): increase in Nur77 expression
half-life at 90.9 µM (α-chymotrypsin): 4.94 min
Scratch healing (MCF7 cells [6]): suppressed the scratch healing
CD36 and FABP4 protein expression (immunoblot) (MCF7 cells [7]): had some effect, but its efficacy was much lower
Nur77 protein expression (immunoblot) (MCF7 cells [7]): increase in Nur77 expression

Effect on NanoBiT luminescence (Nur77-PPARγ complex) (Nur77-PPARγ complex): minimal effects on the luminescence
Structure (SMILES): N=C(N)NCCC[C@H](NC(=O)[C@H](CCCNC(=N)N)NC(=O)[C@H](CCCNC(=N)N)NC(=O)[C@H](CCC(N)=O)NC(=O)[C@H](CCCNC(=N)N)NC(=O)[C@H](CCCNC(=N)N)NC(=O)[C@H](CCCCN)NC(=O)[C@H](CCCCN)NC(=O)[C@H](CCCNC(=N)N)NC(=O)CNC(=O)[C@@H](N)Cc1ccc(O)cc1)C(N)=O [TAT, reference compound]
